Source: patent US6858638B2, “Substituted indazoles, compositions containing them, method of production and use” (Aventis Pharma S.A., priority 2002, dated 2005)

Tests used:
[1] = test system: c-Src protein; assay: Src kinase phosphorylation of biotinylated cdc2 substrate, fluorescence (DELFIA); assay type: biochemical, human
Protocol: The inhibition of the Src kinase is evaluated by measuring the phosphorylation of the biotinylated cdc2 substrate (Pierce) detected by fluorescence (DELFIA) using an antiphosphotyrosine antibody labeled with Europium, in 96-well Wallac plates. The c-Src protein used is a recombinant human protein produced in Baculovirus, comprising the SH3 and SH2 and the catalytic domains. The enzyme, the substrate and the various concentrations of test compounds are placed in the well in a 50 mM Tris buffer containing 10 mM MgCl2. The reaction is initiated by adding 10 μM of ATP. After incubation for 60 minutes at 30° C., the reaction is stopped by adding 75 mM EDTA. 50 μl are taken from each well and transferred into a plate coated with streptavidin. After incubation for 30 minutes at 25° C., the wells are washed with a washing buffer (Wallac) and then the antiphosphotyrosine antibody (PY20-Europium [Perkin Elmer]) is added in a volume of 75 μl. The plate is incubated for 30 minutes at 25° C. and then an “Enhancer” solution (Wallac) is added before reading the fluorescence using a fluorimeter (Perkin Elmer). The background noise is evaluated in triplicate in wells containing the substrate and the antibody in the absence of enzyme. The activity of the enzyme is measured (in triplicate) in the wells containing all the reagents in the absence of compound. The inhibition of the Src activity is expressed as percentage inhibition of the activity of the control determined in the absence of compound. The compound PP2 (Calbiochem) is included at various concentrations in each experiment as an inhibition control.

[2] = target: T1, Aurora2 kinase (Homo sapiens, UniProt O14965); assay: Aurora2 kinase radioactivity scintillation assay using nickel chelate (NuMA substrate); assay type: biochemical; conditions: 10 μM; for inhibition at 10 µM: read-out: Aurora2 % inhib at 10 μM
T1 construct: A complete recombinant Aurora2 enzyme; His tag (N); made in house; host or cells: E. coli
T1 sequence (O14965 1-403): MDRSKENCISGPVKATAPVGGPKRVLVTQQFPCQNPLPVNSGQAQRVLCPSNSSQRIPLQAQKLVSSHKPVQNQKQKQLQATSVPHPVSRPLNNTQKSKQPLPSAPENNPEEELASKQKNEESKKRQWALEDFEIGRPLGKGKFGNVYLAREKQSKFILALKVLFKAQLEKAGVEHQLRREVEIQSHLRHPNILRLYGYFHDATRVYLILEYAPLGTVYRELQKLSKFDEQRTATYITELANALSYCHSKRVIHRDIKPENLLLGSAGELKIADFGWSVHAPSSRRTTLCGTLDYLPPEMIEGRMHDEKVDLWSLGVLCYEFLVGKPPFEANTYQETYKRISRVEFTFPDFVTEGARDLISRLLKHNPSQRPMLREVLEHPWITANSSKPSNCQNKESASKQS
In short: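 His-tagged full-length Aurora2 (0.02 μM, E. coli) phosphorylating His-tagged NuMA C-terminal fragment (0.5 μM) with 1 μM ATP plus [33P]-ATP, 30 min at 37 °C, pH 7.5 Tris buffer with MgCl2. Nickel-chelate scintillation read; percent inhibition versus no-compound control.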

[3] = target: T2, human FAK (Homo sapiens, UniProt Q05397); assay: FAK autophosphorylation inhibition, time resolved fluorescence (HTRF) assay; assay type: biochemical; conditions: 10 μM (values without asterisk); for inhibition at 10 µM: read-out: FAK % inhib at 10 μM
T2 construct: The complete cDNA of human FAK; made in house; host or cells: baculovirus expression system (vector pFastBac HTc)
In short: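 His-tagged full-length human FAK from baculovirus (6.6 µg/ml) self-phosphorylates with 15 µM ATP in HEPES pH 7.2, MgCl2, vanadate, 1 h at 37 °C. HTRF detection (Eu-anti-phosphotyrosine / XL665-anti-His), 665/620 nm ratio; % inhibition vs untreated control, duplicate mean.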

[4] = target: T3, human KDR enzyme (Homo sapiens, UniProt P35968); assay: KDR substrate (PLCγ) phosphorylation, scintillation assay; assay type: biochemical; conditions: 10 μM; for inhibition at 10 µM: read-out: KDR % inhib at 10 μM
T3 construct: The cytoplasmic domain of the human KDR enzyme; GST; made in house; host or cells: SF21 insect cells (baculovirus)
In short: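 GST-fused human KDR cytoplasmic domain from SF21 cells (about 60% pure, 100 ng) phosphorylated 2 μg of GST-PLCγ SH2-SH3 fragment. The trigger solution held γ33P-ATP with 2 μM cold ATP, in MOPS buffer pH 7.2 with Mg2+, Mn2+, vanadate and NaF. Reactions ran 1 h at 37 °C, were stopped with EDTA and counted by scintillation; results are % inhibition versus the no-compound control.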

[5] = target: T4, human IGF1R cytoplasmic domain (Homo sapiens, UniProt P08069); assay: IGF1R autophosphorylation inhibition, time resolved fluorescence (HTRF) assay; assay type: biochemical; conditions: 10 μM
T4 construct: The human IGF1R cytoplasmic domain was cloned; made in house; host or cells: SF21 insect cells (baculovirus)
In short: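 GST-tagged human IGF1R cytoplasmic domain from SF21 cells incubated with compound in 50 mM Hepes pH 7.5, 5 mM MnCl2, 50 mM NaCl, […] ATP. Autophosphorylation detected by HTRF (Eu-K anti-phosphotyrosine, XL665 anti-GST) after EDTA/KF stop; percentage inhibition versus no-compound control.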

T3 sequence (P35968 786-1356 limits assumed): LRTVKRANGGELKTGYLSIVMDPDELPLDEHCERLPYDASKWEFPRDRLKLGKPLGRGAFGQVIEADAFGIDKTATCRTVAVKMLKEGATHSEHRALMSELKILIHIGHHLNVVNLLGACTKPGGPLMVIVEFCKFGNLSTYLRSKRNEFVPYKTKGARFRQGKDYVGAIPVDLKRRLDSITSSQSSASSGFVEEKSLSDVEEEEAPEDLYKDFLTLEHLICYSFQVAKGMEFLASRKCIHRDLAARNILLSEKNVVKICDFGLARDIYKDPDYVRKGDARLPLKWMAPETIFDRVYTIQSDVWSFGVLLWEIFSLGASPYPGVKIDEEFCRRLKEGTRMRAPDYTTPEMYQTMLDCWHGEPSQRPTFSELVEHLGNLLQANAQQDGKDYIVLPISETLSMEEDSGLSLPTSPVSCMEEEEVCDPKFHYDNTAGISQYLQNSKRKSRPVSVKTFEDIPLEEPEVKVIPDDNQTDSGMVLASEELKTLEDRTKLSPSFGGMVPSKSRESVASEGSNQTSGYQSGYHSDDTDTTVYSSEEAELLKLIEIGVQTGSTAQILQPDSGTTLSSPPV
T2 sequence (Q05397 whole entry): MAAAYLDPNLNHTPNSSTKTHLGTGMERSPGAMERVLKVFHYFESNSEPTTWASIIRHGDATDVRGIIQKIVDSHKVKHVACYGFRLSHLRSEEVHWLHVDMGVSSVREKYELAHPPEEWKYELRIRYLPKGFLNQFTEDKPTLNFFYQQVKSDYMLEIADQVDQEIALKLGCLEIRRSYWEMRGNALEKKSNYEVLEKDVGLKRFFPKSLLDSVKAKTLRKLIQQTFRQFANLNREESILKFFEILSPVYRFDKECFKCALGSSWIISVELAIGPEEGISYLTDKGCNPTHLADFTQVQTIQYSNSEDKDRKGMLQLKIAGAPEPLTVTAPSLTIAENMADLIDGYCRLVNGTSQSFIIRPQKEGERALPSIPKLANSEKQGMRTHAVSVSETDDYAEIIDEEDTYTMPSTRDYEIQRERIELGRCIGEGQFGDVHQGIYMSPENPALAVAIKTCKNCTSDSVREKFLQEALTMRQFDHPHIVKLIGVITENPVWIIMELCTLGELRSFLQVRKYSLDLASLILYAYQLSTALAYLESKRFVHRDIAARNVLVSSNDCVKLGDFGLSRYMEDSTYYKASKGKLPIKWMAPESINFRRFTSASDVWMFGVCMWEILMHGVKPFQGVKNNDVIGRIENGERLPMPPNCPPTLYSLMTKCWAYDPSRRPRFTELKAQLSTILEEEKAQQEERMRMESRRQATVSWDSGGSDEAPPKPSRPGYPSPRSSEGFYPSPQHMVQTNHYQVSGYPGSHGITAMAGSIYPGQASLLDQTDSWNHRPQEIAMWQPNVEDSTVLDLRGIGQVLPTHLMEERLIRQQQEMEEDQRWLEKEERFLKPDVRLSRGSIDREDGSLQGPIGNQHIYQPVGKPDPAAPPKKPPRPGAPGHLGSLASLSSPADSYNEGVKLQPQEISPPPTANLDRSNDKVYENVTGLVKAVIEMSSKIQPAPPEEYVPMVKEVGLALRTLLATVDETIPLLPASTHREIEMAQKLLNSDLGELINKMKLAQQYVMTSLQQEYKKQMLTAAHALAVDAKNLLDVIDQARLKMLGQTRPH
T4 sequence (P08069 960-1367 limits assumed): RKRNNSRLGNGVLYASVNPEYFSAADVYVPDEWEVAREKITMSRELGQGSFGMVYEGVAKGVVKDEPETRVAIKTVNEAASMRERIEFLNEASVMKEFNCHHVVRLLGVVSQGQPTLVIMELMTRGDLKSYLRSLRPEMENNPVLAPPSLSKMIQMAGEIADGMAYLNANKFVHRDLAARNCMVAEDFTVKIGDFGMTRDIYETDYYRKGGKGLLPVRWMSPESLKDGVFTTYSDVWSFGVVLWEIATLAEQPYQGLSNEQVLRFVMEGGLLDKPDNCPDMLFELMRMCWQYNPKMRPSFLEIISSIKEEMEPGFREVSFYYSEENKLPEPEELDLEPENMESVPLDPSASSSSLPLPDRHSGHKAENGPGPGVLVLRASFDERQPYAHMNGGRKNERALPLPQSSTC

Row | SMILES | SRC % inhib at 10 μM [1] | inhibition at 10 µM [2] | inhibition at 10 µM [3] | inhibition at 10 µM [4] | melting point | Aurora2 % inhib at 10 μM [2] | IGF1R % inhib at 10 μM [5] | FAK % inhib at 10 μM ([3]; 10 µM) | KDR % inhib at 10 μM [4]
1 | CS(=O)(=O)c1ccccc1S(=O)(=O)Nc1ccc2[nH]nc(Br)c2c1 [Example 38, N-(3-Bromo-1H-indazol-5-yl)-2-methylsulfonylbenzenesulfonamide] | 56% | 86% | 69% | 3% | – | – | – | – | –
2 | CS(=O)(=O)c1ccccc1S(=O)(=O)Nc1ccc2[nH]nc(-c3cccs3)c2c1 [Example 50, 2-Methylsulfonyl-N-(3-thiophen-2-yl-1H-indazol-5-yl)benzenesulfonamide] | – | – | – | – | 246 °C | 91% | 63% | 99% | 80%
3 | CS(=O)(=O)c1ccccc1S(=O)(=O)Nc1ccc2[nH]nc(-c3csc4ccccc34)c2c1 [Example 64, N-(3-Benzo[b]thiophen-3-yl-1H-indazol-5-yl)-2-methylsulfonylbenzenesulfonamide] | 86% | 72% | 30% | 41% | 235 °C | – | – | – | –
4 | CS(=O)(=O)c1ccccc1S(=O)(=O)Nc1ccc2[nH]nc(-c3ccc([N+](=O)[O-])cc3)c2c1 [Example 66, N-[3-(4-Nitrophenyl)-1H-indazol-5-yl]-2-methylsulfonylbenzenesulfonamide] | 90% | 100% | 75% | 20% | – | – | – | – | –
5 | CS(=O)(=O)c1ccccc1S(=O)(=O)Nc1ccc2[nH]nc(-c3cccc4ccccc34)c2c1 [Example 72, 2-Methylsulfonyl-N-(3-naphthalen-1-yl-1H-indazol-5-yl)-benzenesulfonamide] | 77% | 78% | 21% | 41% | 186 °C | – | – | – | –
6 | CS(=O)(=O)c1ccccc1S(=O)(=O)Nc1ccc2[nH]nc(-c3ccc4ccccc4c3)c2c1 [Example 73, 2-Methylsulfonyl-N-(3-naphthalen-2-yl-1H-indazol-5-yl)-benzenesulfonamide] | 40% | 100% | 87% | 38% | 221 °C | – | – | – | –
7 | CS(=O)(=O)c1ccccc1S(=O)(=O)Nc1ccc2[nH]nc(CCc3ccc(F)cc3)c2c1 [Example 75, N-{3-[2-(4-Fluorophenyl)ethyl]-1H-indazol-5-yl}-2-methylsulfonylbenzenesulfonamide] | – | 87% | 82% | 35% | 234 °C | – | – | – | –
8 | CS(=O)(=O)c1ccccc1S(=O)(=O)Nc1ccc2[nH]nc(CCc3ccc(Cl)cc3)c2c1 [Example 77, N-{3-[2-(4-Chlorophenyl)ethyl]-1H-indazol-5-yl}-2-methylsulfonylbenzenesulfonamide] | – | 93% | 73% | 36% | 215 °C | – | – | – | –
9 | CS(=O)(=O)c1ccccc1S(=O)(=O)Nc1ccc2[nH]nc(/C=C/C(=O)O)c2c1.Cl [Example 80, (E)-3-[5(2-Methylsulfonylbenzenesulfonylamino)-1H-indazol-3-yl]-acrylic acid] | – | 89% | 66% | 32% | 170 °C | – | – | – | –
10 | CS(=O)(=O)c1ccccc1S(=O)(=O)Nc1ccc2[nH]nc(CCc3ccccc3)c2c1 [Example 90, 2-Methylsulfonyl-N-(3-phenethyl-1H-indazol-5-yl)benzenesulfonamide] | – | 100% | 89% | 45% | 192 °C | – | – | – | –
11 | O=S(=O)(Nc1ccc2[nH]nc(-c3ccccc3)c2c1)c1cccnc1 [Example 96, N-(3-Phenyl-1H-indazol-5-yl)pyridine-3-sulfonamide] | 83% | 100% | 67% | 91% | 225 °C | – | – | – | –
12 | O=[N+]([O-])c1cccc(S(=O)(=O)Nc2ccc3[nH]nc(-c4ccccc4)c3c2)c1 [Example 97, 3-Nitro-N-(3-phenyl-1H-indazol-5-yl)benzenesulfonamide] | 76% | 93% | 50% | 96% | 228 °C | – | – | – | –
13 | Nc1cccc(S(=O)(=O)Nc2ccc3[nH]nc(-c4ccccc4)c3c2)c1 [Example 98, 3-Amino-N-(3-phenyl-1H-indazol-5-yl)benzenesulfonamide] | 78% | 94% | 53% | 91% | – | – | – | – | –
14 | O=S(=O)(Nc1ccc2[nH]nc(-c3ccccc3)c2c1)C1CCCCC1 [Example 99, N-(3-Phenyl-1H-indazol-5-yl)cyclohexanesulfonamide] | – | 79% | 44% | 46% | 160 °C | – | – | – | –
15 | O=S(=O)(Nc1ccc2[nH]nc(-c3ccccc3)c2c1)c1cccc(C(F)(F)F)c1 [Example 130, 3-Trifluoromethyl-N-(3-phenyl-1H-indazol-5-yl)-benzenesulfonamide] | 18% | 69% | 26% | 94% | – | – | – | – | –
16 | O=S(=O)(Nc1ccc2[nH]nc(-c3ccccc3)c2c1)c1cccc(Cl)c1 [Example 136, 3-Chloro-N-(3-phenyl-1H-indazol-5-yl)-benzenesulfonamide] | 62% | 85% | 59% | 98% | – | – | – | – | –
17 | O=S(=O)(Nc1ccc2[nH]nc(-c3ccccc3)c2c1)c1cc(Cl)cc(Cl)c1 [Example 137, 3,5-Dichloro-N-(3-phenyl-1H-indazol-5-yl)-benzenesulfonamide] | 59% | 80% | 53% | 96% | – | – | – | – | –
18 | O=S(=O)(Nc1ccc2[nH]nc(-c3ccccc3)c2c1)c1ccccc1Br [Example 139, 2-Bromo-N-(3-phenyl-1H-indazol-5-yl)-benzenesulfonamide] | 51% | 96% | 53% | 96% | – | – | – | – | –
19 | O=S(=O)(Nc1ccc2[nH]nc(-c3ccccc3)c2c1)c1cccc(Br)c1 [Example 141, 3-Bromo-N-(3-phenyl-1H-indazol-5-yl)-benzenesulfonamide] | 43% | 80% | 38% | 97% | – | – | – | – | –
20 | CCCCN(CCCC)c1cccc2c(S(=O)(=O)Nc3ccc4[nH]nc(-c5ccccc5)c4c3)cccc12 [Example 147, 5-Dibutylamino-N-(3-phenyl-1H-indazol-5-yl)naphthalene-1-sulfonamide] | 88% | 86% | 0% | 96% | – | – | – | – | –
